Data: patent publication US6777425B2, “Isoquinoline compounds having antiinfective activity” (Genesoft Pharmaceuticals, Inc., priority 2001, dated 2004)

Key:
E. faecalis ATCC 29212 = assay: NCCLS broth microdilution MIC, E. faecalis; assay type: cell-based; conditions: organism C = E. faecalis ATCC 29212
Excerpt: (§1) Compounds according to this invention were screened for their in vitro activities against selected species of bacteria and fungi. […]

S. aureus ATCC 27660 = assay: NCCLS broth microdilution MIC, S. aureus (MRSA); assay type: cell-based, Staphylococcus aureus; conditions: organism F = S. aureus ATCC 27660 (MRSA)
Excerpt: as §1

B. cereus ATCC 11778 = assay: NCCLS broth microdilution MIC, B. cereus; assay type: cell-based, Bacillus cereus; conditions: organism A = B. cereus ATCC 11778
Excerpt: as §1

S. aureus ATCC 13709 = assay: NCCLS broth microdilution MIC, S. aureus (MSSA); assay type: cell-based, Staphylococcus aureus; conditions: organism E = S. aureus ATCC 13709 (MSSA)
Excerpt: as §1

C. albicans ATCC 38247 = assay: Antifungal MIC, C. albicans; assay type: cell-based, Candida albicans; conditions: organism B = C. albicans ATCC 38247
Excerpt: as §1

S. pneumoniae ATCC 49619 = assay: NCCLS broth microdilution MIC, S. pneumoniae ATCC 49619; assay type: cell-based, Streptococcus pneumoniae; conditions: organism H = S. pneumoniae ATCC 49619
Excerpt: as §1

S. pneumoniae ATCC 51422 = assay: NCCLS broth microdilution MIC, S. pneumoniae (PRSP); assay type: cell-based, Streptococcus pneumoniae; conditions: organism I = S. pneumoniae ATCC 51422 (PRSP)
Excerpt: as §1

E. faecium ATCC 51559 = assay: NCCLS broth microdilution MIC, E. faecium (VRE); assay type: cell-based, Enterococcus faecium; conditions: organism D = E. faecium ATCC 51559 (VRE)
Excerpt: as §1

[1] = tested on: S. epidermidis ATCC 12228; assay: NCCLS broth microdilution MIC, S. epidermidis; assay type: cell-based, Staphylococcus epidermidis; conditions: organism G = S. epidermidis ATCC 12228
Excerpt: as §1

Minimum Inhibitory Concentration (MIC) (E. faecalis ATCC 29212) | Minimum Inhibitory Concentration (MIC) (S. aureus ATCC 27660) | Minimum Inhibitory Concentration (MIC) (B. cereus ATCC 11778) | Minimum Inhibitory Concentration (MIC) (S. aureus ATCC 13709) | Minimum Inhibitory Concentration (MIC) (C. albicans ATCC 38247) | Minimum Inhibitory Concentration (MIC) (S. pneumoniae ATCC 49619) | Minimum Inhibitory Concentration (MIC) (S. pneumoniae ATCC 51422) | Minimum Inhibitory Concentration (MIC) (E. faecium ATCC 51559) | Minimum Inhibitory Concentration (MIC) [1] | SMILES
+++ (+++ = MIC ≦ 4) | +++ (+++ = MIC ≦ 4) | +++ (+++ = MIC ≦ 4) | +++ (+++ = MIC ≦ 4) | >32 µg/mL | +++ (+++ = MIC ≦ 4) | +++ (+++ = MIC ≦ 4) |  |  | C[C@@H]1CCC[C@H](C)N1CCNC(=O)c1cc(NC(=O)c2ccc(NC(=O)c3cc(NC(=O)c4cc5ccccc5cn4)cn3C)cc2)cn1C [Ic-6]
+++ (+++ = MIC ≦ 4) | +++ (+++ = MIC ≦ 4) | +++ (+++ = MIC ≦ 4) | +++ (+++ = MIC ≦ 4) | >32 µg/mL | +++ (+++ = MIC ≦ 4) | +++ (+++ = MIC ≦ 4) | +++ (+++ = MIC ≦ 4) | +++ (+++ = MIC ≦ 4) | Cn1cc(NC(=O)c2ccc(NC(=O)c3cc(NC(=O)c4cc5ccccc5cn4)cn3C)cc2)cc1C(=O)NCCN1CCSCC1 [Ic-7]
+++ (+++ = MIC ≦ 4) | +++ (+++ = MIC ≦ 4) | +++ (+++ = MIC ≦ 4) | +++ (+++ = MIC ≦ 4) | >32 µg/mL | +++ (+++ = MIC ≦ 4) | +++ (+++ = MIC ≦ 4) | +++ (+++ = MIC ≦ 4) | ++ (++ = 4 < MIC < 12) | Cn1cc(NC(=O)c2cc3ccccc3cn2)cc1C(=O)Nc1cc(C(=O)Nc2c[nH]c(C(=O)NCCN3CCSCC3)c2)n(C)c1 [Ib-54]
+++ (+++ = MIC ≦ 4) | +++ (+++ = MIC ≦ 4) | +++ (+++ = MIC ≦ 4) | +++ (+++ = MIC ≦ 4) | ++ (++ = 4 < MIC < 12) | +++ (+++ = MIC ≦ 4) | +++ (+++ = MIC ≦ 4) | +++ (+++ = MIC ≦ 4) | +++ (+++ = MIC ≦ 4) | Cn1cc(NC(=O)c2cc(NC(=O)c3cc(NC(=O)c4cc5ccccc5cn4)cn3C)c[nH]2)cc1C(=O)NCCN1CCCCC1 [Ib-86]
+++ (+++ = MIC ≦ 4) | +++ (+++ = MIC ≦ 4) | +++ (+++ = MIC ≦ 4) | +++ (+++ = MIC ≦ 4) | >32 µg/mL | +++ (+++ = MIC ≦ 4) | +++ (+++ = MIC ≦ 4) | +++ (+++ = MIC ≦ 4) | +++ (+++ = MIC ≦ 4) | Cn1cc(NC(=O)c2cc(NC(=O)c3cc(NC(=O)c4cc5ccccc5cn4)cn3C)c[nH]2)cc1C(=O)NCCc1ccccn1 [Ib-93]
+++ (+++ = MIC ≦ 4) | +++ (+++ = MIC ≦ 4) | +++ (+++ = MIC ≦ 4) | +++ (+++ = MIC ≦ 4) | >32 µg/mL | +++ (+++ = MIC ≦ 4) |  |  |  | CN(C)CCNC(=O)c1cc(NC(=O)c2ccc(NC(=O)c3cc(NC(=O)c4cc5ccccc5cn4)cn3C)cc2)cn1C [Ic-16]
+++ (+++ = MIC ≦ 4) | +++ (+++ = MIC ≦ 4) | +++ (+++ = MIC ≦ 4) | +++ (+++ = MIC ≦ 4) | >32 µg/mL | +++ (+++ = MIC ≦ 4) |  |  |  | CCN(CCO)CCNC(=O)c1cc(NC(=O)c2ccc(NC(=O)c3cc(NC(=O)c4cc5ccccc5cn4)cn3C)cc2)cn1C [Ic-18]
+++ (+++ = MIC ≦ 4) | +++ (+++ = MIC ≦ 4) | +++ (+++ = MIC ≦ 4) | +++ (+++ = MIC ≦ 4) | + (+ = 12 ≦ MIC ≦ 32) | +++ (+++ = MIC ≦ 4) |  |  |  | CN(C)CCCn1cc(NC(=O)c2cc(NC(=O)c3cc4ccccc4cn3)c[nH]2)cc1C(=O)Nc1cc(C(=O)NCCN2CCOCC2)n(C)c1 [Ib-82]
+++ (+++ = MIC ≦ 4) | +++ (+++ = MIC ≦ 4) | +++ (+++ = MIC ≦ 4) | ++ (++ = 4 < MIC < 12) | >32 µg/mL | +++ (+++ = MIC ≦ 4) |  |  |  | Cn1cc(NC(=O)c2cc(NC(=O)c3cc(NC(=O)c4cc5ccccc5cn4)c[nH]3)cn2C)cc1C(=O)NCCN1CCCCC1 [Ib-62]
>32 µg/mL | +++ (+++ = MIC ≦ 4) | >32 µg/mL | +++ (+++ = MIC ≦ 4) | >32 µg/mL | +++ (+++ = MIC ≦ 4) |  |  |  | CN1CCN(CCNC(=O)c2cc(NC(=O)c3ccc(NC(=O)c4cc(NC(=O)c5cc6ccccc6cn5)cn4C)cc3)cn2C)CC1 [Ic-14]
+++ (+++ = MIC ≦ 4) | +++ (+++ = MIC ≦ 4) | +++ (+++ = MIC ≦ 4) | +++ (+++ = MIC ≦ 4) | >32 µg/mL | +++ (+++ = MIC ≦ 4) |  |  |  | CCN(CC)CCNC(=O)c1cc(NC(=O)c2ccc(NC(=O)c3cc(NC(=O)c4cc5ccccc5cn4)cn3C)cc2)cn1C [Ic-9]
+++ (+++ = MIC ≦ 4) | +++ (+++ = MIC ≦ 4) | +++ (+++ = MIC ≦ 4) | +++ (+++ = MIC ≦ 4) | >32 µg/mL | +++ (+++ = MIC ≦ 4) |  |  |  | CN(C)CCSCCn1cc(NC(=O)c2cc3ccccc3cn2)cc1C(=O)Nc1cc(C(=O)Nc2cc(C(=O)NCCN3CCOCC3)n(C)c2)n(C)c1 [Ib-79]
+++ (+++ = MIC ≦ 4) | +++ (+++ = MIC ≦ 4) | +++ (+++ = MIC ≦ 4) | +++ (+++ = MIC ≦ 4) | >32 µg/mL | +++ (+++ = MIC ≦ 4) |  |  |  | CCN(CC)CCNC(=O)c1cc(NC(=O)c2cc(NC(=O)c3cc(NC(=O)c4cc5ccccc5cn4)cn3C)cn2C)sn1 [Ib-53]
+++ (+++ = MIC ≦ 4) | >32 µg/mL | >32 µg/mL | ++ (++ = 4 < MIC < 12) | >32 µg/mL | +++ (+++ = MIC ≦ 4) |  |  |  | Cn1cc(NC(=O)c2cc3ccccc3cn2)cc1C(=O)Nc1cc(C(=O)Nc2cn(C)c(C(=O)NCCN3CCOCC3)n2)n(C)c1 [Ib-58]
+++ (+++ = MIC ≦ 4) | +++ (+++ = MIC ≦ 4) | +++ (+++ = MIC ≦ 4) | +++ (+++ = MIC ≦ 4) | >32 µg/mL | +++ (+++ = MIC ≦ 4) |  |  |  | Cn1cc(NC(=O)c2cc(NC(=O)c3cc(NC(=O)c4cc5ccccc5cn4)cn3C)c[nH]2)cc1C(=O)NCCCNC1CCCCC1 [Ib-92]
+++ (+++ = MIC ≦ 4) | +++ (+++ = MIC ≦ 4) | >32 µg/mL | + (+ = 12 ≦ MIC ≦ 32) | >32 µg/mL | +++ (+++ = MIC ≦ 4) |  |  |  | Cn1cc(NC(=O)c2cc(NC(=O)c3cc4ccccc4cn3)no2)cc1C(=O)OCCN1CCOCC1 [Ib-61]
+++ (+++ = MIC ≦ 4) | +++ (+++ = MIC ≦ 4) | +++ (+++ = MIC ≦ 4) | +++ (+++ = MIC ≦ 4) | >32 µg/mL | +++ (+++ = MIC ≦ 4) |  |  |  | Cn1cc(NC(=O)c2ccc(NC(=O)c3cc(NC(=O)c4cc5ccccc5cn4)cn3C)cc2)cc1C(=O)NCCN1CCC(O)CC1 [Ic-8]

SMILES | Minimum Inhibitory Concentration (MIC) (E. faecalis ATCC 29212) | Minimum Inhibitory Concentration (MIC) (S. aureus ATCC 27660) | Minimum Inhibitory Concentration (MIC) (B. cereus ATCC 11778) | Minimum Inhibitory Concentration (MIC) (S. aureus ATCC 13709) | Minimum Inhibitory Concentration (MIC) (C. albicans ATCC 38247) | Minimum Inhibitory Concentration (MIC) (S. pneumoniae ATCC 49619) | Minimum Inhibitory Concentration (MIC) (S. pneumoniae ATCC 51422) | Minimum Inhibitory Concentration (MIC) (E. faecium ATCC 51559) | Minimum Inhibitory Concentration (MIC) [1]
Cn1cc(NC(=O)c2cc(NC(=O)c3cc4ccccc4cn3)cn2CCCN2CCCCC2)cc1C(=O)Nc1ccc2cnccc2c1 [Ib-90] | +++ (+++ = MIC ≦ 4) | +++ (+++ = MIC ≦ 4) | +++ (+++ = MIC ≦ 4) | +++ (+++ = MIC ≦ 4) | + (+ = 12 ≦ MIC ≦ 32) | +++ (+++ = MIC ≦ 4) |  |  | 
